# Bridge positions count the residues as written; N and C are the ends. Square brackets hold non-standard residues; d marks the D form. Peptide text beside a SMILES is read from it. Orn = NCCC[C@H](N)C(=O)O
# Key:
# Mu-type opioid receptor [1] = biological target: T1, Mu-type opioid receptor (Cavia porcellus, UniProt P97266); test: Inhibitory activity towards Opioid receptor mu 1 using guinea pig ileum (GPI) assay was determined for the compound; type: tissue-based
# [2] = biological target: Delta-type opioid receptor (Rattus norvegicus, UniProt P33533); test: Inhibition of [3H]DSLET binding to rat brain membrane Opioid receptor delta 1
# Mu-type opioid receptor [3] = biological target: T2, Mu-type opioid receptor (Rattus norvegicus, UniProt P33535); test: Binding affinity towards Opioid receptor mu 1 in rat brain membrane using [3H]DAGO as radioligand; type: cell membranes
# [4] = biological target: Delta-type opioid receptor (Mus musculus, UniProt P32300); test: Inhibitory activity towards electrically induced contractions in mouse vas deferens expressing delta opioid receptor; type: functional, tissue-based
# Mu-type opioid receptor [5] = biological target: T1, Mu-type opioid receptor; test: Inhibitory activity towards electrically induced contractions in guinea pig ileum expressing Opioid receptor mu 1; type: tissue-based
# Mu-type opioid receptor [6] = biological target: T1, Mu-type opioid receptor; test: Inhibitory activity towards electrically induced contractions in guinea pig ileum expressing mu opioid receptor; type: tissue-based
# Mu-type opioid receptor [7] = biological target: T2, Mu-type opioid receptor; test: Binding affinity towards mu Opioid receptor in rat brain membrane using [3H]DAGO as radioligand; type: cell membranes
# Chain of Delta-type opioid receptor (Mus musculus, UniProt P32300) (P32300 whole entry): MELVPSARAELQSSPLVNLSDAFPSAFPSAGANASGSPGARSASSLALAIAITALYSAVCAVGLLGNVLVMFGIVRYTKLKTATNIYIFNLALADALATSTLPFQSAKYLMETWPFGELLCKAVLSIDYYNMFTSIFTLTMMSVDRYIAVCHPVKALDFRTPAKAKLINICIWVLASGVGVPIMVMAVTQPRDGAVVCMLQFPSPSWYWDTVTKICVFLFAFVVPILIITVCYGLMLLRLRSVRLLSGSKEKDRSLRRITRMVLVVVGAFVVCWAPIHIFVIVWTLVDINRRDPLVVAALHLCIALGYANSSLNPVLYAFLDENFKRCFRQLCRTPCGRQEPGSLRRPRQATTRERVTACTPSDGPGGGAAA
# T2 sequence (P33535 whole entry): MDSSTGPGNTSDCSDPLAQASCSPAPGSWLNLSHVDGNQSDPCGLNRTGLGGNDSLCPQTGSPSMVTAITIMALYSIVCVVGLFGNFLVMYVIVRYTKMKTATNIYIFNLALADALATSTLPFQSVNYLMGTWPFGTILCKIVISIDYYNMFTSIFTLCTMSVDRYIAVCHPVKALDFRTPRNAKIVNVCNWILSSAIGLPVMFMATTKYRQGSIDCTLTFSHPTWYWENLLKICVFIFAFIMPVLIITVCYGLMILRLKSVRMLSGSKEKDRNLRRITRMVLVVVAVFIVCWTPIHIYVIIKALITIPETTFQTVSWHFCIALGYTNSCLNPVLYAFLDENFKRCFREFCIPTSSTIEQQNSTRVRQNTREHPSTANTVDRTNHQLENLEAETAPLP
# Chain of Delta-type opioid receptor (Rattus norvegicus, UniProt P33533) (P33533 whole entry): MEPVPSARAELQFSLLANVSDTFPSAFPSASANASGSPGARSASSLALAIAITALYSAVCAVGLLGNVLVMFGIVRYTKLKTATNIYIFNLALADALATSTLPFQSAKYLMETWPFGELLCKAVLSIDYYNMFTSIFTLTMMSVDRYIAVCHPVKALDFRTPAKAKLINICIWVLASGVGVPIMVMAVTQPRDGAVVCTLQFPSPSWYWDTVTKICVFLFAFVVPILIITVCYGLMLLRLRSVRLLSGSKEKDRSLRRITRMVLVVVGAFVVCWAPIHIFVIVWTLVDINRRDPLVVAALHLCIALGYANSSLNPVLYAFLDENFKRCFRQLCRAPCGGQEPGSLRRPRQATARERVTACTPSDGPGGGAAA
# T1 sequence (P97266 whole entry): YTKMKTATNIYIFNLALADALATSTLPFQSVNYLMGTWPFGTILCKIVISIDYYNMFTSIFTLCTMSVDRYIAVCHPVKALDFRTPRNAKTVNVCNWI
SMILES,IC50 (Mu-type opioid receptor [1]) [nM],Ki [2] [nM],Ki (Mu-type opioid receptor [3]) [nM],IC50 [4] [nM],IC50 (Mu-type opioid receptor [5]) [nM],IC50 (Mu-type opioid receptor [6]) [nM],Ki (Mu-type opioid receptor [7]) [nM]
NC(=O)[C@@H]1CSSC[C@@H](NC(=O)[C@@H](N)Cc2ccc(O)cc2)C(=O)N[C@@H](Cc2ccccc2)C(=O)N1,64.7,373,11,–,–,–,–
NC(=O)[C@@H]1CC(=O)NCCC[C@@H](NC(=O)[C@@H](N)Cc2ccc(O)cc2)C(=O)N[C@@H](Cc2ccc([N+](=O)[O-])cc2)C(=O)N1,–,5060,273,> 100000,2340,–,–
NC(=O)[C@H]1CC(=O)NCCC[C@@H](NC(=O)[C@@H](N)Cc2ccc(O)cc2)C(=O)N[C@@H](Cc2ccccc2)C(=O)N1,–,422,21.7,4810,632,–,–
CN1C(=O)[C@H](NC(=O)[C@@H](N)Cc2ccc(O)cc2)CCCNC(=O)C[C@@H](C(N)=O)NC(=O)[C@@H]1Cc1ccccc1,–,28100,3570,1380,6460,–,–
NC(=O)[C@@H]1CCNC(=O)C[C@@H](NC(=O)[C@@H](N)Cc2ccc(O)cc2)C(=O)N[C@@H](Cc2ccccc2)C(=O)N1,–,4170,24.8,2030,279,–,–
NC(=O)[C@@H]1CC(=O)NCCC[C@@H](NC(=O)[C@@H](N)Cc2ccc(O)cc2)C(=O)N[C@@H](Cc2ccccc2)C(=O)N1,–,2220,10.4,3880,–,36.2,–
NC(=O)[C@@H]1CC(=O)NCCC[C@@H](NC(=O)[C@@H](N)Cc2ccc(O)cc2)C(=O)N[C@H](Cc2ccccc2)C(=O)N1,–,> 380000,3040,> 8640,> 21000,–,–
NC(=O)[C@@H]1CC(=O)NCCC[C@H](NC(=O)[C@@H](N)Cc2ccc(O)cc2)C(=O)N[C@@H](Cc2ccccc2)C(=O)N1,–,> 60000,–,> 100000,16800,–,4830
NC(=O)[C@@H]1CC(=O)NCCC[C@@H](NC(=O)[C@@H](N)Cc2ccc(O)cc2)C(=O)N[C@@H](CCc2ccccc2)C(=O)N1,–,849,11.9,1370,111,–,–
NC(=O)[C@@H]1CC(=O)NCCC[C@@H](NC(=O)[C@@H](N)Cc2ccc(O)cc2)C(=O)N[C@@H](C2CCCCC2)C(=O)N1,–,3570,–,1660,18400,–,445
NC(=O)[C@@H]1CCCNC(=O)C[C@@H](NC(=O)[C@@H](N)Cc2ccc(O)cc2)C(=O)N[C@@H](Cc2ccccc2)C(=O)N1 (H-Y[dD]F[Orn]-NH2; lactam 2-4),–,1320,9.55,8570,522,–,–
